Earlier results on three compounds are cited in patent US5296224A, “Kava-kava extract, process for the production thereof and use thereof” (Dr. Wilmar Schwabe GmbH & Co., priority 1990, dated 1994).

One series has as its system skin. As to conditions: Shulgin 1973.
For series [1] the following is noted: 21° C.
For series [2] the following is noted: administered as pure substance; Kretschmer, MMW 4/1970.

As for `COc1ccc(/C=C/C(=O)c2c(O)cc(OC)cc2OC)cc1` [flavokawin A], the skin-specific secondary effects entry in the series with skin was “skin-specific secondary effects”.
As for `COc1cc(O)c(C(=O)/C=C/c2ccccc2)c(OC)c1` [flavokawin B], the skin-specific secondary effects result with skin is recorded as “skin-specific secondary effects”.
On to `COC1=CC(=O)O[C@@H](/C=C/c2ccccc2)C1` [kawain], for which, in series [1], the “maximum solubility in water” value is listed as 2.2 mg/100 ml water. For the same compound, in series [2], the effective daily dose result is listed as “about 200 mg”.
